# Data published in a melting point compilation (Tetko et al.; mined from patent text by program, amines drawn as free bases though some values may be those of a salt).
row,SMILES,melting point
1,CCCc1nn(-c2ccc(C(F)(F)F)cn2)cc1CCCOc1c(Br)cccc1CC(=O)O,145 to 146 °C
2,NC(CCCBr)C(=O)c1ccccc1 (centres undefined),74 to 76 °C
3,COc1ccc(C(=O)NCCCN2CCN(C(c3ccccc3)c3ccccc3)CC2)cc1,126 to 128 °C
4,[N-]=[N+]=NCc1cccnc1,40 to 43 °C
5,CCCCCc1ccc(-c2ccc(OCCCC)c(N)c2)cc1,38 °C
6,O=C1C(=O)N(CCCN2CCN(C(=O)N(c3ccccc3)c3ccccc3)CC2)c2ccccc21,163 to 164 °C
7,CCC(=O)CCc1ccc(OC)c(S(N)(=O)=O)c1,135 to 138 °C
8,O=C1NC(=O)C(Cc2ccc(OCCON=Cc3ccc(-c4ccccc4)nc3)cc2)S1 (centres undefined),102 to 104 °C
9,COc1cccc2c(=O)n3c(cc12)S(=O)(=O)CCC3,251 to 252 °C
10,CNc1ccc(C(=O)OC)c(S(=O)(=O)NC(C)(C)C)c1,120 to 124 °C
11,Cc1cc(C)c([Si]2(c3c(C)cc(C)cc3C)C(=O)C(c3ccccc3)=C(c3ccccc3)C(=O)[Si]2(c2c(C)cc(C)cc2C)c2c(C)cc(C)cc2C)c(C)c1,67 to 68 °C
12,CSc1noc(-c2ccc(OCCCOc3ccccc3)cc2)c1C#N,121 to 123 °C
13,COc1cc2oc(=O)c3c(c2cc1[N+](=O)[O-])CCN(CC(C)=O)C3,222 to 225 °C
14,CCC(C)(C#N)NC(=O)Cc1c(C)cc(C)cc1C (centres undefined),155 to 157 °C
15,O=C(CCC(=O)N1CCC[C@H]1C(=O)O)c1cccs1,100 to 102 °C
16,CSc1c(C)nc(C(C)C)nc1O,156 °C
17,O=C(O)C1CCCC2c3ccccc3CC12 (centres undefined),138 to 139 °C
18,CCCCCCCNC(=O)Oc1ccc2ncccc2c1,78 °C
19,CN(c1nccc(-n2nnc3ccccc32)n1)[C@H]1CC[C@H](N(C)S(C)(=O)=O)CC1,204 °C
20,CCOC(=O)c1ncn2c1CN(C)C(=O)c1c(Cl)cccc1-2,229 to 230 °C
21,N#CCN(CC#N)CCN(CC#N)CC#N,131 to 132 °C
22,CC(=O)OCCn1ccc(=O)c(OCc2ccccc2)c1C(OC(C)=O)c1cccc(F)c1 (centres undefined),148 to 149 °C

row,SMILES,melting point
1,CCC(=O)N1CCC(NC(=O)Nc2ccc(C(=O)OC)cc2)CC1,201 to 204 °C
2,O=Cc1c[nH]c(=O)c2ccccc12,222 to 223 °C
3,NS(=O)(=O)Oc1cccc([N+](=O)[O-])c1,118 to 120 °C
4,O=Cc1ccc(OCc2ccccc2)c(OCc2ccccc2)c1OCc1ccccc1,73 to 74 °C
5,CC1Cc2cc(NS(C)(=O)=O)ccc2OC12CCC(N1CCc3ccccc3C1)CC2 (centres undefined),135 °C
6,CC(C)Cc1ccc(C(C)C(=O)ON(C(N)=O)C(C)c2ccoc2)cc1 (centres undefined),55 to 59 °C
7,CC(C)(C)[C@H](N)C(N)=O,104 to 105 °C
8,CCCCCCCCCCNC(=O)c1ccc([N+](=O)[O-])cc1,89 to 91 °C
9,CO[C@H]([C@@H](C)C(=S)NCCc1ccccc1)[C@@H]1CCCN1C(=O)OC(C)(C)C,107 to 109 °C
10,O=C(Nc1ccccc1)Nc1ccnc(C(F)(F)F)c1,169 to 171 °C
11,Cn1cc(-c2ccc(C(F)(F)F)cc2)c(=O)c(-c2cccc(C(F)(F)F)c2)c1,110 to 113 °C
12,Cc1ccc(S(=O)(=O)C(CCCCCc2cccc(C(F)(F)F)c2)C(=O)O)cc1 (centres undefined),62 °C
13,Nn1cccc1C(=O)c1ccccc1F,44 to 47 °C
14,COc1c(NC2CCC(=Cc3ccccc3)CC2)ccnc1C (centres undefined),120 °C
15,CCOC(=O)CCSc1nnsc1-c1ccc(F)cc1,76.5 to 77.5 °C
16,CCOC(=O)CN1C(=O)C(N[C@H]2CCCCNC2=O)CCc2ccccc21 (some centres undefined),148 to 150 °C
17,CNN(NC)C(=O)Sc1cccnc1C(=O)OC,56 to 58 °C
18,CCOC(=O)C(C)(C)Oc1ccc(OCCc2nc(-c3ccc(C(N)=O)cc3)oc2C)cc1,112 °C
19,CC(=O)NC[C@H]1CN(c2ccc(C3=CCCN(C(=O)OC(C)(C)C)CC3)c(F)c2)C(=O)O1,164 to 165 °C
20,CN(C)CCCOc1ccc(-c2nnc(CSCCOc3ccccc3)n2Cc2ccccc2)cc1,88 to 92 °C
21,CN(C)C(=O)Nc1ccc(O)c([N+](=O)[O-])c1,142 °C
22,O=[N+]([O-])c1ccccc1NOS(=O)(=O)c1ccccc1,140 °C

row,SMILES,melting point
1,CC=COC(=O)c1c(S(=O)(=O)NC(=O)Nc2nc(C)cc(C)n2)c(C)nn1C,180 to 183 °C
2,C=CC(=O)OCc1cn(CCCCCCCCCCCCCCCC)nn1,72 to 73 °C
3,CC1=C(C(=O)OCCCl)C(c2cccc3c(=O)c(C)c(-c4ccccc4)oc23)C(C(=O)OC(C)C)=C(C)N1 (centres undefined),235 to 237 °C
4,CCOC(=O)c1ccc(N)cc1C(=O)OCC,95.6 °C
5,Cn1cc(C(=O)NCc2ccc(F)cc2)c(=O)c2cc(CN3CCOCC3)sc21,214 to 216 °C
6,CC[C@@H]1O[C@](C#CC2CC2)(C(F)(F)F)c2cc(F)ccc2NC1=O (relative stereo),186 °C
7,CCOC(=O)c1ccc2c(c1)C(=C1CCN(C)CC1)c1ccccc1CC2,85 to 87 °C
8,CC(C)(C)CCc1ccc(C(=O)NNS(=O)(=O)c2ccccc2)cc1,168 to 169 °C
9,Cn1c(=O)c2c(nc3n2CC(O)CN3)n(C)c1=O (centres undefined),360 °C
10,CCCCc1c(OC)cc(C(=O)O)nc1OC,113 to 114 °C
11,CCCCN1C(=O)c2cccc3c(SC)ccc1c23,75 to 77 °C
12,CCC1CCN(Cc2ccc(COc3cccc4c3CN(C3CCC(=O)NC3=O)C4=O)cc2)CC1 (centres undefined),180 to 182 °C
13,Cc1oc(-c2ccccc2)nc1CNS(=O)(=O)c1ccc(CC2SC(=O)NC2=O)cc1 (centres undefined),120 to 122 °C
14,CN1CCC(=C2c3ccccc3COc3ccc(Br)cc32)CC1,131 to 132 °C
15,CNC(=NC#N)Nc1cccc(C(=O)NCCSCc2ccc(CN(C)C)o2)c1,140 to 142 °C
16,O=C1CC([N+](=O)[O-])([N+](=O)[O-])CO1,100 to 102 °C
17,CCNCC1CCN(c2c(F)cc3c(=O)c(C(=O)O)cn4c3c2OCC4CC)C1 (centres undefined),221 to 224 °C
18,CCOC(=O)c1ccc(N=C(Nc2ccc(C(=O)OCC)cc2)c2ccc([N+](=O)[O-])cc2)cc1,202 to 205 °C
19,O=C(c1cc([N+](=O)[O-])ccc1Nc1ccncc1)N1CCCCC1,194 to 196 °C
20,S=c1n(N=Cc2ccccc2)ccn1N=Cc1ccccc1,215 to 218 °C
21,CCN1C(=O)C(C)(C)C(=O)N(C)c2cc(CN(CCn3ccc4oc(C)cc4c3=O)Cc3ccccc3CO)ccc21,159 to 161 °C

# More lines, now with the values ahead:
row,melting point,SMILES
1,186 to 187 °C,Cc1cccc(COc2nn3c(-c4ccccc4)nnc3c3ccccc23)n1
2,243 to 244 °C,O=C(O)Cc1c(C(=O)c2cc(Cl)ccn2)[nH]c2ccc(Cl)cc12
3,205 °C,COc1ccc(-c2c(Cl)ncn2-c2ccc(S(C)(=O)=O)cc2)cc1
4,135 to 139 °C,CCCN(CCC)CCc1ccc(O)c2nc[nH]c12
5,128 to 130 °C,CC(C)OC(=O)CCC(=O)c1ccc(Cl)c(S(N)(=O)=O)c1
6,141 to 143 °C,CCOC(=O)c1cc2cc(C)cc(C)c2[nH]1
7,84 to 88 °C,Nc1c(Br)cc(Br)cc1S(=O)(=O)C(F)F
8,51 to 56 °C,CON(C)C(=O)c1c(COC2CCCCO2)noc1-c1ccccc1Cl (centres undefined)
9,97 °C,COc1ccc(Cl)cc1C(=O)NC1COc2cc(C)ccc2C1 (centres undefined)
10,117 to 118 °C,Cn1c(C(F)(F)F)ccc(-c2cc(CBr)c(Cl)cc2F)c1=O
11,56 to 57 °C,Clc1ccc(-c2coc3ccccc23)cc1
12,134 to 136 °C,O=C1c2ccccc2C(=O)N1Cc1cc(I)ccc1Cl
13,122 to 123 °C,COC1=C(c2ccc(C)cc2C)C(=O)CCC1
14,237 to 238 °C,CCOC(=O)c1[nH]c(-c2ccc(Cl)cc2)nc1C
15,158 to 159 °C,COc1cc(Nc2nccc(C(=O)Nc3ccccc3)n2)cc(OC)c1OC
16,93.9 to 94 °C,COCOc1ccc(C=O)c(Oc2ncc(C(F)(F)F)cc2Cl)c1
17,89 to 90 °C,Nc1cc(Cl)ccc1-n1cccc1
18,205 to 207 °C,Cc1nc2c(N)nc3cc(OCCC4CCN(C(=O)C(C)C)CC4)ccc3c2n1CC(C)C
19,141 to 143 °C,CCc1nc(CO)n(CC)c1Sc1cc(C#N)cc(C#N)c1
20,211 to 214 °C,Nc1nc(Cl)cnc1-c1cc(Cl)cc(Cl)c1Cl

row,melting point,SMILES
1,102 to 103 °C,N#CC(C#N)=CN(Cc1ccc(Cl)c(Cl)c1)c1cc(C(F)(F)F)cc(C(F)(F)F)c1
2,155 to 158 °C,CC(c1oc2ccccc2c(=O)c1-c1cccc(F)c1)n1cnc2c(N)ncnc21 (centres undefined)
3,174 to 175 °C,Cc1cc(CCc2cc(O)c(=O)[nH]n2)ccc1C(F)(F)F
4,203 to 205 °C,CC(C)(C)CNc1nc(C#N)nc2ccc(OCc3ccncc3)cc12
5,114 to 115 °C,NCc1ccc2[nH]ccc2c1
6,85 °C,Cc1cc2cccc(OS(=O)(=O)C(F)(F)F)c2nc1-c1ccccc1
7,143 °C,O=C1OCC(CCO)(c2ccc(Cl)c(Cl)c2)CN1Cc1ccccc1 (centres undefined)
8,162 to 164 °C,CSc1ncc(Oc2cnccc2C)c(=O)[nH]1
9,68 to 69 °C,CC(C)c1nn(Cc2ccc(Cl)cc2Cl)cc1CCCO
10,110 to 113 °C,Cc1cc(Cl)ccc1NC(=S)N(C)OCC(=O)O
11,268 to 271 °C,CCOC(=O)c1nc(N)sc1-c1cn2cc(C)ccc2n1
12,134 to 135 °C,CCCCCc1ccc2cc(Nc3ccc(O)cc3)ccc2c1
13,171 to 173 °C,CC1(C)OCC2Cc3cc4c(cc3C(c3ccc([N+](=O)[O-])cc3)=NN21)OCO4 (centres undefined)
14,185 to 188 °C,O=C(NCc1ccc(Cl)cc1)c1cnc2cc(C(F)(F)F)c(SCc3ccccc3)cc2c1O
15,273 °C,CC1(C)Cc2cc(O)c(Cl)c(Cl)c2C1=O
16,242 °C,CCNC(=O)Cn1nc(Nc2ccc3c(c2)OC(F)(F)O3)nc1-c1cc(C)nc(C)c1
17,145 to 146 °C,COC(=O)CNCCNC(=O)c1nc(Cl)c(N)nc1N
18,210 to 213 °C,NC(=O)c1cc2cc(Br)ccc2o1
19,184 to 185 °C,CC(C)OC(=O)NNc1n[nH]c2cc(Cl)ccc12
